Reference: patent publication US12240844B2 (Voronoi, Inc., priority 2019, dated 2025)

What was measured:
Experiment in all cases: scanMAX Kinase panel (DiscoverX), % control
Assay type in all cases: binding
Details in all cases: <35% = active
CLK1 = molecular target: T1, CLK1 (Homo sapiens, UniProt P49759)
T1 construct: purchased DiscoverX
Procedure: (§1) Specifically, for Examples 162, 160, 105, 217, 205, 96, 207, 184, 206, 221, 238, and 237 selected among the example compounds of the present invention, it was decided to measure enzyme (kinase) selectivity by DiscoverX, and the experiment was conducted using a panel for scanMAX™ Kinase analysis. At this time, the concentration of the drug treated with the enzyme was 1 uM in DMSO, the control percentage (% control) was determined in the same way as in Equation 1 below, and the results were shown in Table 6 below. [formula] Here, the positive control refers to a compound showing a control percentage of 0%, and the negative control is DMSO, indicating a control percentage of 100%. Also, in the enzyme selectivity of the present invention, if the control percentage for each enzyme was <35% (i.e., less than 35%), it was determined to have activity against the relevant enzyme.

ALK (L1196M) = molecular target: T2, ALK (L1196M) (Homo sapiens, UniProt Q9UM73, L1196M)
T2 construct: purchased DiscoverX
Procedure: as §1

CLK4 = molecular target: T3, CLK4 (Homo sapiens, UniProt Q9HAZ1)
T3 construct: purchased DiscoverX
Procedure: as §1

DYRK2 = molecular target: T4, DYRK2 (Homo sapiens, UniProt Q92630)
T4 construct: purchased DiscoverX
T4 sequence (Q92630 1-601): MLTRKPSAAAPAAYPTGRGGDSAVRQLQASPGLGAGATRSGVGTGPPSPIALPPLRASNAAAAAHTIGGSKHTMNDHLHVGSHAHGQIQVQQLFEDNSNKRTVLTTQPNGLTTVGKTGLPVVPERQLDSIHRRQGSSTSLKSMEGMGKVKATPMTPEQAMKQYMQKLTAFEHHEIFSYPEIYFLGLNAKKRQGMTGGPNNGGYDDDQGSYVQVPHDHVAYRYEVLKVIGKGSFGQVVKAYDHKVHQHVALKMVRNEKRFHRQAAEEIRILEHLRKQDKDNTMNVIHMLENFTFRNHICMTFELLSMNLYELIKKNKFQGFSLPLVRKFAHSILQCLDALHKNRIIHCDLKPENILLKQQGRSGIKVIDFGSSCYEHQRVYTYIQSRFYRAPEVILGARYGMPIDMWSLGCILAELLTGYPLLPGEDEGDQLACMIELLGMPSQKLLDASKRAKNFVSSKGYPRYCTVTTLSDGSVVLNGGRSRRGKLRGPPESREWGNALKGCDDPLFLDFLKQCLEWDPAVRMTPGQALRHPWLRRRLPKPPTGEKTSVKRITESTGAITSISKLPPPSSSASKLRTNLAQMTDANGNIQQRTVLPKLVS
Procedure: as §1

CLK3 = molecular target: T5, CLK3 (Homo sapiens, UniProt P49761)
T5 construct: purchased DiscoverX
Procedure: as §1

MYLK = molecular target: T6, MYLK (Homo sapiens, UniProt Q15746)
T6 construct: purchased DiscoverX
Procedure: as §1

ALK = molecular target: T7, ALK (Homo sapiens, UniProt Q9UM73)
T7 construct: purchased DiscoverX
Procedure: as §1

ALK (C1156Y) = molecular target: T8, ALK (C1156Y) (Homo sapiens, UniProt Q9UM73, C1156Y)
T8 construct: purchased DiscoverX
Procedure: as §1

DYRK1B = molecular target: T9, DYRK1B (Homo sapiens, UniProt Q9Y463)
T9 construct: purchased DiscoverX
Procedure: as §1

GAK = molecular target: T10, GAK (Homo sapiens, UniProt O14976)
T10 construct: purchased DiscoverX
T10 sequence (O14976 1-1311): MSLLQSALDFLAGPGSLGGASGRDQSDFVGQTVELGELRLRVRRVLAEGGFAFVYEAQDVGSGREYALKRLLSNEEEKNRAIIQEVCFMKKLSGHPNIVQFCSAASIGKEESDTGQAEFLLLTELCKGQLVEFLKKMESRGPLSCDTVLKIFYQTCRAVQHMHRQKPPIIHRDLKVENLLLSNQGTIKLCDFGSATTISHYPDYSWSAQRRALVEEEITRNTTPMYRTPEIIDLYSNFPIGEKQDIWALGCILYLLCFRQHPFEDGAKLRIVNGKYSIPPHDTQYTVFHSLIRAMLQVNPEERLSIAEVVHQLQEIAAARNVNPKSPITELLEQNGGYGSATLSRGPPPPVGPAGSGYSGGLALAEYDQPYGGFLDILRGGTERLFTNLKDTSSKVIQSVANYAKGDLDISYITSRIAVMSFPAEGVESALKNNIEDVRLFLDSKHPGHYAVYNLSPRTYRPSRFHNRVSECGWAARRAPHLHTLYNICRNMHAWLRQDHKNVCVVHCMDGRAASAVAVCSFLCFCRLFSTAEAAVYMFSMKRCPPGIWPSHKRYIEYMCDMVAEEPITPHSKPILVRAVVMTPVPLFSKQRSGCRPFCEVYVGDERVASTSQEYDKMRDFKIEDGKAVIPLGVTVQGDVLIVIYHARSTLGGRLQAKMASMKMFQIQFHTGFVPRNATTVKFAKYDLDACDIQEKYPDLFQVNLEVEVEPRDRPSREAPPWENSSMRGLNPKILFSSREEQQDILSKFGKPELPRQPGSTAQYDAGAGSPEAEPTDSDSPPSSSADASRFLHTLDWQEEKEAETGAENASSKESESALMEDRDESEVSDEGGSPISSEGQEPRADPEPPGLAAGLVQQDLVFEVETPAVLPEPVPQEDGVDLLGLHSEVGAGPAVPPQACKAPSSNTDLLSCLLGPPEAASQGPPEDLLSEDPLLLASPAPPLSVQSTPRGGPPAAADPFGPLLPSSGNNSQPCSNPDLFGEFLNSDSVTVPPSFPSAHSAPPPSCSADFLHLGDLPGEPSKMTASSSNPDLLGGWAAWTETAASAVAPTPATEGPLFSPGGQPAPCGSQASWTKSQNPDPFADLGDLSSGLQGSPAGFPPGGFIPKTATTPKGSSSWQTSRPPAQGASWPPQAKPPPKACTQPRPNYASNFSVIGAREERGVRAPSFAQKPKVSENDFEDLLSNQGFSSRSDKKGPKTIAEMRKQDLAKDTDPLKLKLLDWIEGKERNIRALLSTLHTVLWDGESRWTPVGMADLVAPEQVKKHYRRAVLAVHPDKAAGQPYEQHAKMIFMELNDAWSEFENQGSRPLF
Procedure: as §1

CLK2 = molecular target: T11, CLK2 (Homo sapiens, UniProt P49760)
T11 construct: purchased DiscoverX
Procedure: as §1

T8 sequence (Q9UM73 19-1620 C1156Y): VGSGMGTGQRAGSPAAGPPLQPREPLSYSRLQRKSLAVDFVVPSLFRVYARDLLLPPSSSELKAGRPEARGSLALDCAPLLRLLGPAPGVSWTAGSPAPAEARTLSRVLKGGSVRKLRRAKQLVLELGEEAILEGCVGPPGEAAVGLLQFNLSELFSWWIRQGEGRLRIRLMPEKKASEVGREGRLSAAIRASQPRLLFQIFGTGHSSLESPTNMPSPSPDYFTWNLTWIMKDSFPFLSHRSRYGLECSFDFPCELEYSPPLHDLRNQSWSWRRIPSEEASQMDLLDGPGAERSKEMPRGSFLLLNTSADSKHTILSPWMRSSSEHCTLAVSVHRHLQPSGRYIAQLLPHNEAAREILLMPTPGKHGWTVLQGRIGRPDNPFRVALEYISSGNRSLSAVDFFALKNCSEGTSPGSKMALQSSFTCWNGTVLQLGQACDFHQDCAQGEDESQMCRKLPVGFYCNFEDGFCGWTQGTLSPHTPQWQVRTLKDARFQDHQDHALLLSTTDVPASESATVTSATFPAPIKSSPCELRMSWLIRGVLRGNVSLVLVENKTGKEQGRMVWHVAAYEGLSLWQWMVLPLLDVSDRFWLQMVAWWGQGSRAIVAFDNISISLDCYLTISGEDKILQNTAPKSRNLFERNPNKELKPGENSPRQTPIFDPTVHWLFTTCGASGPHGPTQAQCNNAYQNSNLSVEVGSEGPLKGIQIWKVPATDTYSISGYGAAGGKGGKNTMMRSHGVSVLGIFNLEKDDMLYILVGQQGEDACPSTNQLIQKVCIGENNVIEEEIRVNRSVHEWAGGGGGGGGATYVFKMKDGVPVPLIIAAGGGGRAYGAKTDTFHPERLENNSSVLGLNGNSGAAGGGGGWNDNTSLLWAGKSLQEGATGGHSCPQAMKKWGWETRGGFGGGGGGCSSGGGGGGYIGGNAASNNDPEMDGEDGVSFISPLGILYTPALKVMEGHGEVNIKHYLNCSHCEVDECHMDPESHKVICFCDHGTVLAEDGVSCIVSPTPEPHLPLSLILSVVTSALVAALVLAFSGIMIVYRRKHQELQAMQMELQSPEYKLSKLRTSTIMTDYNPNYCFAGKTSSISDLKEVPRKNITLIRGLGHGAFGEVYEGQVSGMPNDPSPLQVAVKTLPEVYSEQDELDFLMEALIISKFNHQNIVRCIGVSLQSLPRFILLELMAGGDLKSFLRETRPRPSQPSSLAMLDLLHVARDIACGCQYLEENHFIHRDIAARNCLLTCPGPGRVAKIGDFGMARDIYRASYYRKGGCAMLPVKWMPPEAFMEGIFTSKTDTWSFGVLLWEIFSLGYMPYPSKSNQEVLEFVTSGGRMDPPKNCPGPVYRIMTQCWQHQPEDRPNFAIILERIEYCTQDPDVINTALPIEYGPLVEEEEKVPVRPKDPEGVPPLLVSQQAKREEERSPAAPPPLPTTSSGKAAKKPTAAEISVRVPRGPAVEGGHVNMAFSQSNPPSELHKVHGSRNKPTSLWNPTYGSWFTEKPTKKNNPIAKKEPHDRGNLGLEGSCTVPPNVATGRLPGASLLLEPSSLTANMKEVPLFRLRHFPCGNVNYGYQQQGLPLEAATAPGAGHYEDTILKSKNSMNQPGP
T9 sequence (Q9Y463 whole entry): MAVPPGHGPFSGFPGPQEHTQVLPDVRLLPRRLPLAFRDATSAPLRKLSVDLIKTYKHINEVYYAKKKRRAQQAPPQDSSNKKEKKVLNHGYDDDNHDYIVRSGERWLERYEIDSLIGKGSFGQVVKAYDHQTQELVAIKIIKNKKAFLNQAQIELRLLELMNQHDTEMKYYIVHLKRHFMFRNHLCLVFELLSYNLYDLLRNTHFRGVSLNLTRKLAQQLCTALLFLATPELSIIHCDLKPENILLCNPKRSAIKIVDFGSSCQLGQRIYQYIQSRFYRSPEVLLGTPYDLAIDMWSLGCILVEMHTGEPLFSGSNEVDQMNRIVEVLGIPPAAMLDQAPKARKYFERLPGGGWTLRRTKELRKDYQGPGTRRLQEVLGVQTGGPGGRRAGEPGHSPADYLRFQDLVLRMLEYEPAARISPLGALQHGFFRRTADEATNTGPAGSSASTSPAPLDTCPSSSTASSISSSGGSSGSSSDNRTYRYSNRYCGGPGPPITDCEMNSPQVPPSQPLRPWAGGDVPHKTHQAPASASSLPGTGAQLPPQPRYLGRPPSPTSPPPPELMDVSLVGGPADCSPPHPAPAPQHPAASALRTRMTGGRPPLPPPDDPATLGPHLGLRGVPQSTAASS
T2 sequence (Q9UM73 19-1620 L1196M): as the sequence (Q9UM73 19-1620 C1156Y) above, with Y1138C, L1178M counted along it
T5 sequence (P49761 whole entry): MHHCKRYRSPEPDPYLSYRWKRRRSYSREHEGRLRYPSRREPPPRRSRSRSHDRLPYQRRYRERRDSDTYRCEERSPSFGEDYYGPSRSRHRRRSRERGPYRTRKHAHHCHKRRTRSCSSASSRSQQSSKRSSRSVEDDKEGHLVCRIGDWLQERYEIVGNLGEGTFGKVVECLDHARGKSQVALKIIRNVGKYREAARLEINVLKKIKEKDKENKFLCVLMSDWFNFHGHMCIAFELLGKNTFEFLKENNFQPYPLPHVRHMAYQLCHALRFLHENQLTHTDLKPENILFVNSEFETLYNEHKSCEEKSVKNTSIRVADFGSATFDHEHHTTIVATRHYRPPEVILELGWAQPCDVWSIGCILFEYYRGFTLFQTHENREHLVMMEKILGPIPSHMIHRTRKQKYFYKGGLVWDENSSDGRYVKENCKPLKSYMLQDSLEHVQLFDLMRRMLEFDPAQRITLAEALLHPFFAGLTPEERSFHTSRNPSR
T7 sequence (Q9UM73 19-1620): as the sequence (Q9UM73 19-1620 C1156Y) above, with Y1138C counted along it
T3 sequence (Q9HAZ1 whole entry): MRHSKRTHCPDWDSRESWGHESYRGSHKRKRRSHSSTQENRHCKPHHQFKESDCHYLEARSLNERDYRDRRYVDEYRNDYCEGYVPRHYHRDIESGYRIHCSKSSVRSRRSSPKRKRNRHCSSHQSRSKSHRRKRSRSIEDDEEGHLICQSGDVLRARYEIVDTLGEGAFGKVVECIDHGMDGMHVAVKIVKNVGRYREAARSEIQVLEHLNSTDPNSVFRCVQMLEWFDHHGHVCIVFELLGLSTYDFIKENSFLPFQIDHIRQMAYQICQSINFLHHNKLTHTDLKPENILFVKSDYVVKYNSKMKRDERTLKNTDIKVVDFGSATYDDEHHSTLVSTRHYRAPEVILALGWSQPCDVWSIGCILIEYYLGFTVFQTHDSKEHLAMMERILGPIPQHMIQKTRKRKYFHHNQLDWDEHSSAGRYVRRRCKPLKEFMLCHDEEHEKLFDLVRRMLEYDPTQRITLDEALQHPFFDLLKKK
T11 sequence (P49760 whole entry): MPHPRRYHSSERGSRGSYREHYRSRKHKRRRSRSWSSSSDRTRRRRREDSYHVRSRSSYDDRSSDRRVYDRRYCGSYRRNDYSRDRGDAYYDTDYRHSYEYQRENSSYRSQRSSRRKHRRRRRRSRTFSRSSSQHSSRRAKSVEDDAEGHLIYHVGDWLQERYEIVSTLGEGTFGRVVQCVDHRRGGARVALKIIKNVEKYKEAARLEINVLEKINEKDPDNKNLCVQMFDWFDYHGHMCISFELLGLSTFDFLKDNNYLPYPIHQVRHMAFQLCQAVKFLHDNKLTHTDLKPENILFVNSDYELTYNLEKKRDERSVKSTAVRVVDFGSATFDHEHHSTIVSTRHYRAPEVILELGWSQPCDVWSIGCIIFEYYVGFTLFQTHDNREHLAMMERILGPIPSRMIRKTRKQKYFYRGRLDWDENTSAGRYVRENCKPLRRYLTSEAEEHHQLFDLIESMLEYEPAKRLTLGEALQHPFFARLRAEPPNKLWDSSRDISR
T1 sequence (P49759 whole entry): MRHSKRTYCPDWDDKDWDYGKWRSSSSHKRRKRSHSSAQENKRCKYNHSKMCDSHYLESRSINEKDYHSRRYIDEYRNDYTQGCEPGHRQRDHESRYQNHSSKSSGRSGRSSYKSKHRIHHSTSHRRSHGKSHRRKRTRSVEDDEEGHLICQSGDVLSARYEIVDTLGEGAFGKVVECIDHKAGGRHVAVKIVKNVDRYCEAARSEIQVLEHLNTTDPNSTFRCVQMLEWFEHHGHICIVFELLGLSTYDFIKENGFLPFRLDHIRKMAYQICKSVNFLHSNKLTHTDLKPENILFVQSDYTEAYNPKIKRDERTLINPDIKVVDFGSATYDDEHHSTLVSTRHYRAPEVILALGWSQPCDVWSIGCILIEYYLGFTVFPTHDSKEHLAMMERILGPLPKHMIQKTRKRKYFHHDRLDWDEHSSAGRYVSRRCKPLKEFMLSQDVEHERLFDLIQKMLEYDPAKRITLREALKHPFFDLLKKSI

Compound	remaining binding at 1 µM (CLK1)	remaining binding at 1 µM (ALK (L1196M))	remaining binding at 1 µM (CLK4)	remaining binding at 1 µM (DYRK2)	remaining binding at 1 µM (CLK3)	remaining binding at 1 µM (MYLK)	remaining binding at 1 µM (ALK)	remaining binding at 1 µM (ALK (C1156Y))	remaining binding at 1 µM (DYRK1B)	remaining binding at 1 µM (GAK)	remaining binding at 1 µM (CLK2)
CCNc1cc(Nc2ccc(S(=O)(=O)N3CCC(N4CCOCC4)CC3)c3c2OCCO3)nc2[nH]cc(C(F)(F)F)c12 [Example 96, N^4-ethyl-N^6-(8-((4-morpholonopiperidin-1-yl)sulfonyl)-2,3-dihydrobenzo [b] [1,4]dioxin-5-yl)-3-(trifluoromethyl)-1H-pyrrolo[2,3-b]pyridine-4,6-diamine]	9.7%	28%	0.3%	21%	27%	37%	9.5%	10%	3%	14%	1.2%
CCCNc1cc(Nc2ccc(C(=O)N3CCC(N4CCOCC4)CC3)c3c2OCCO3)nc2[nH]cc(C(F)(F)F)c12 [Example 162, (4-morpholinopiperidin-1-yl)(8-((4-(propylamino)-3-(trifluoromethyl)-1H-pyrrolo[2,3-b]pyridin-6-yl)amino)-2,3-dihydrobenzo[b] [1,4]dioxin-5-yl)methanone]	13%	1.3%	0.55%	20%	13%	0%	0.65%	0.9%	0%	6.3%	0.65%
CNc1cc(Nc2ccc(S(=O)(=O)N3CCC(N4CCOCC4)CC3)cc2OC)nc2[nH]cc(C(F)(F)F)c12 [Example 184, N^6-(2-methoxy-4-((4-morpholinopiperidin-1-yl)sulfonyl)phenyl)-N^4-methyl-3-(trifluoromethyl)-1H-pyrrolo[2,3-b]pyridine-4,6-diamine]	3.4%	23%	0.45%	14%	7.8%	8%	15%	7%	13%	27%	0.3%
CCNc1cc(Nc2ccc(P3(=O)CCN(C4CC4)CC3)cc2OC)nc2[nH]cc(C(F)(F)F)c12 [Example 206, 1-cyclopropyl-4-(4-((4-(ethylamino)-3-(trifluoromethyl)-1H-pyrrolo[2,3-b]pyridin-6-yl)amino)-3-methoxyphenyl)-1,4-azaphosphinane 4-oxide]	8.5%	23%	1.2%	45%	91%	3%	9%	5.3%	0%	29%	3.1%
COCCNc1cc(Nc2ccc(P3(=O)CCN(C4CC4)CC3)cc2OC)nc2[nH]cc(C(F)(F)F)c12 [Example 207, 1-cyclopropyl-4-(3-methoxy-4-((4-((2-methoxyethyl)amino)-3-(trifluoromethyl)-1H-pyrrolo[2,3-b]pyridin-6-yl)amino)phenyl)-1,4-azaphosphinane 4-oxide]	5.6%	10%	0.55%	18%	66%	5.3%	5.9%	1.8%	0%	38%	7.2%

Now from value to molecule:

remaining binding at 1 µM (CLK1)	remaining binding at 1 µM (ALK (L1196M))	remaining binding at 1 µM (CLK4)	remaining binding at 1 µM (DYRK2)	remaining binding at 1 µM (CLK3)	remaining binding at 1 µM (MYLK)	remaining binding at 1 µM (ALK)	remaining binding at 1 µM (ALK (C1156Y))	remaining binding at 1 µM (DYRK1B)	remaining binding at 1 µM (GAK)	remaining binding at 1 µM (CLK2)	Compound
1.5%	2.3%	5.5%	8%	5.9%	1.3%	0.3%	2%	0.9%	4.8%	0.35%	CCNc1cc(Nc2ccc(C(=O)N3CCC(N4C[C@@H]5C[C@H]4CO5)CC3)c3c2OCC3)nc2[nH]cc(C(F)(F)F)c12 [Example 105, (4-((1S,4S)-2-oxa-5-azabicyclo[2.2.1]heptan-5-yl)piperidin-1-yl)(7-((4-(ethylamino)-3-(trifluoromethyl)-1H-pyrrolo[2,3-b]pyridin-6-yl)amino)-2,3-dihydrobenzofuran-4-yl)methanone]
13%	1.3%	0.55%	20%	13%	0%	0.65%	0.9%	0%	6.3%	0.65%	CNc1cc(Nc2ccc(C(=O)N3CCC(N4CCOCC4)CC3)c3c2OCCO3)nc2[nH]cc(C(F)(F)F)c12 [Example 160, (8-((4-(methylamino)-3-(trifluoromethyl)-1H-pyrrolo[2,3-b]pyridin-6-yl)amino)-2,3-dihydrobenzo [b] [1,4]dioxin-5-yl)(4-morpholinopiperidin-1-yl)methanone]
18%	1.6%	0.25%	28%	37%	0%	1.4%	1.3%	2.5%	12%	0.15%	CNc1cc(Nc2ccc(P3(=O)CCN(C4CC4)CC3)cc2OC)nc2[nH]cc(C(F)(F)F)c12 [Example 205, 1-cyclopropyl-4-(3-methoxy-4-((4-(methylamino)-3-(trifluoromethyl)-1H-pyrrolo[2,3-b]pyridin-6-yl)amino)phenyl)-1,4-azaphosphinane 4-oxide]
